Laboratory results taken from patent US8202873B2, “2-[4-(pyrazol-4-ylalkyl)piperazin-1-yl]-3-phenyl pyrazines as 5-HT7 receptor antagonists” (Eli Lilly and Company, priority 2007, dated 2012).
Marks after values point to notes of the source that are not given here.

Experiments:
adult male CF-1 mice = experiment: Foot electroshock stress induced cGMP elevation model for anxiety; type: in vivo; details: normalized to vehicle/no stress group, mean
Source text: The foot electroshock stress induced cGMP elevation model for anxiety is an established anxiety model, wherein stress from an unavoidable electroshock to the feet induces an elevation in cerebellar cGMP levels, which elevation is reduced or blocked by preadministration of anxiolytic compounds (Sethy and Oien (1991), Pharmacology Biochemistry & Behavior, vol. 39, pg. 379-382). Briefly, adult male CF-1 mice (25-30 g Harlan, Indianapolis, Ind.) are housed under a 12-hr light/dark cycle in a temperature and humidity controlled environment. Mice are habituated to the environment for at least 3 days and all studies are carried out between 9:00 AM and 12:00 noon to reduce the effects of diurnal fluctuations. Test mice are given a single intraperitoneal injection of test compound or control (vehicle is 3% DMSO, 20% emulphor stock, 10% lactic acid stock) and are sacrificed approximately 30 min. after dosing, using a beam of microwave radiation (microwave fixation system model GA5013; Gerling Applied Engineering, Modesto, Calif.) focused on the skull for 0.5 sec. at high power setting. This method preserves tissue cGMP content. After microwaving, a small piece (10-20 mg) of cerebellar cortex is quickly removed from the skull. The tissue is weighed and then homogenized in 2 ml of 1.0% perchloric acid. Tissue homogenate is kept on ice for 30 min followed by 5 min. in a boiling water bath. The homogenate is then centrifuged at 11,700 g for 20 min. 1 mL of supernatant is then acetylated with 40 μl of triethylamine and 20 μl of acetic anhydride, vortexed, and centrifuged at 13,000 g for 20 min at 4° C. Acetylated mouse cerebellum samples are stored at 4° C. pending cGMP analysis by radioimmunoassay with the cGMP ^125I Flash Plate radioimmunoassay test kit (PerkinElmer Life and Analytical Sciences, Boston, Mass.) on duplicate samples from each animal as per manufacturer's instructions.
For stressed mouse groups, 30 min. post injection, mice are subjected to a 1.0 mA foot-shock for 10 sec. in a Habitest Operant cage equipped with a modular shock floor (Habitest Modular Test System, Coulbourn Instruments, Allentown, Pa.). Mice are then sacrificed and cerebellar cortex samples are processed as described.
For each animal, cGMP levels are normalized to wet tissue weight and used to compute group averages and S.E.M. (typically 4-6 mice per group). All data are analyzed on the log scale to correct problems with heterogeneity of variance. Statistical analyses are performed using ANOVA followed by Dunnett's method to compare each treatment group to the vehicle group.

Male Sprague Dawley rats [1] = experiment: Formalin model of persistent pain; type: in vivo; details: formalin into hind paw
Description: The “formalin model” of persistent pain, particularly for inflammatory pain and neuropathic pain, is well known and can be used to test compounds for pain blocking and/or analgesic activity. (see Shibata M. et al., Pain (1989) 38: 347-352; and Tjolsen A. et al., Pain (1992) 51:5-17.)
Male Sprague Dawley rats (Harlan Labs, Indianapolis, Ind.) weighing between 200-250 g are maintained at constant temperature (21-23° C.) and light (12 hr. light/12 hr. dark), with free access to food and water for 7 days prior to testing. All testing is conducted during the light cycle after fasting over night and with the testing room temperature maintained at constant temperature (21-23° C.). […]
The animals are administered either vehicle or test compound and individually placed in holding cylinders. […] The cylinders are then placed on the load cells of the detection system and the response monitored continuously for 60 min. in 1-second bins (i.e. collections periods). As previously described by Jett and Michelson, the formalin-induced movements, “events,” detected by the system include licking and flinching the affected paw. […]
Data are evaluated by one-way analysis of variance (ANOVA) and the appropriate contrasts analyzed by the Dunnett ‘t’ test for 2-sided comparisons using JMP statistical analysis program (v5.1.1 SAS Institute Inc., Cary, N.C.). […]

5-HT7 receptor = target: T1, 5-HT7 receptor (Homo sapiens, UniProt P34969); experiment: Functional antagonist assay: measurement of cAMP formation; type: cell-based
T1 construct: expressed in transfected cells; host or cells: AV-12 cells
T1 sequence (P34969 whole entry): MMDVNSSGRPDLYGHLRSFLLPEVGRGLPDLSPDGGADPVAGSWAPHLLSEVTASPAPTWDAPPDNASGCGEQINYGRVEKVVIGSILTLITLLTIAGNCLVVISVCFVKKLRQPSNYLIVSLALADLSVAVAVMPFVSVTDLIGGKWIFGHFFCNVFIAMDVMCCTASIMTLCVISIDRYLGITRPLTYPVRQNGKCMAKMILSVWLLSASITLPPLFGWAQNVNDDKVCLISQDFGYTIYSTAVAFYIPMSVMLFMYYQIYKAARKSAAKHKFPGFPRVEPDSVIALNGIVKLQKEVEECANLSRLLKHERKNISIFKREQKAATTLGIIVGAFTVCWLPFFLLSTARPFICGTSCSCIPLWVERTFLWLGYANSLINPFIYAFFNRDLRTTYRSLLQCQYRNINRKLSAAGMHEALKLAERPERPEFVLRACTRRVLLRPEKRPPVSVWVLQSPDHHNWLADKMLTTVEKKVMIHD
Description: For cAMP functional assays, the 5-HT7-expressing cells from above are grown in 150 cm^2 flasks and processed essentially as follows. The media is aspirated from the flasks and cells are washed with 1 mL PBS. The cells are trypsinized and resuspended in complete media. A sample of the cells is counted and the remainder is centrifuged as above for 3 min. The resulting cell pellet is resuspended in PBS at a concentration of 1×10^6 cells per mL and used directly in the cAMP assay as described.
The 5-HT7 receptor is functionally coupled to a G-protein as measured by the ability of serotonin and serotonergic drugs to stimulate cAMP production in CHO cells transfected with the 5-HT7 receptor. (Ruat, et al., Proceedings of the National Academy of Sciences (USA), 90:8547-8551, 1993.) Accordingly, functional receptor activity can be measured by measuring adenylate cyclase activity using a commercially available cell-based, homogeneous, time resolved fluorescence assay kit, as for example the kit produced by Cisbio-US, Inc. (Bedford, Mass.). Essentially, and using the protocol and reagents provided by the manufacturer, approximately 20,000 human 5-HT7 receptor-expressing AV-12 cells (as described above) are used with test compound dose concentrations in the range described for the binding assay. […] A cAMP standard curve is also run in every experiment. After the assay plates are read in an Envision™ instrument (Perkin-Elmer, Wellesley Mass.), the data is normalized to the standard curve and converted to percent inhibition for data analysis as described above for the receptor binding assay results. The Kb (nM) is calculated as a measure of the antagonist potency of the compound.

[2] = system: male Harlan Sprague-Dawley rats; experiment: Animal model of dural plasma protein extravasation (PPE); type: in vivo; details: saline controls approximately 2.0, full prevention approximately 1.0
Source text: The dural plasma protein extravasation model is an established model for migraine. The ability of a test compound to reduce extravasation of plasma proteins into the dura under assay conditions is considered indicative of the compound's ability to reduce or prevent the dural inflammation thought to be symptomatic of migraine. (see Johnson, K. W., et al., Neuroreport, 8 (1997) 2237-2240.)
To assay compounds for their ability to reduce or prevent dural plasma protein extravasation, male Harlan Sprague-Dawley rats (250-350 g) are anesthetized with sodium pentobarbital (65 mg/kg, i.p.) and placed in a stereotaxic frame (David Kopf Instruments) with the incisor bar set at −2.5 mm. Following a midline sagital scalp incision, 2 pairs of bilateral holes are drilled through the skull (3.2 mm posterially, 1.8 and 3.8 mm laterally, all coordinates referenced to bregma). […]
The amount of FITC-BSA for each sample is quantified with a fluorescence microscope (Zeiss) equipped with a grating monochromator, a spectrophotometer, and a computer driven stage. Fluorescence measurements are taken at 25 points in a 5×5 grid in 500 μm steps on each dural sample with an excitation wavelength of approximately 490 nm and emission intensity measured at approximately 535 nm. The mean and standard deviation of the 25 measurements are determined. […]

Male Sprague Dawley rats [3] = experiment: L5/L6 nerve ligation model (Chung model) of persistent pain; type: in vivo; details: i.p.
Description: The L5/L6 Nerve Ligation model (Chung model) is a well established model for persistent pain, specifically neuropathic pain. Surgery is performed on male Sprague Dawley rats (Harlan, Indianapolis, Ind.), weighing 150-200 g at the time of surgery as previously described (Kim and Chung, 1992). Briefly, neuropathic injury is produced by tightly ligating the left L5 and L6 spinal nerves under gas anesthesia with a mixture of isoflurane (3% for induction and 2% for maintenance) and O2. Following surgery, development of neuropathic pain is evaluated daily by measuring mechanical sensitivity of the injured paw to von Frey filaments with incremental bending forces (0.5-15 g) as described by (Chaplan et al., 1994). […] Test drug or vehicle is administered i.p. and the mechanical threshold for paw flinching is measured at 0.5, 1, 2, 3, 4 and 6 hr. after dosing. Measurement of the mechanical threshold for paw flinching is also done prior to surgery (preoperative control). Data are expressed as the threshold force required to elicit a response (g) as means±S.E.M. (standard error of the mean).

## Cc1nnc2n1-c1ccc(Cl)cc1C(c1ccccc1)=NC2 [Alprazolam, alprazolam]
Adult male CF-1 mice; 1 mg/kg (ip, 30 min)/stress
  cerebellar cGMP, stress: 60* percent

## CNC1=Nc2ccc(Cl)cc2C(c2ccccc2)=[N+]([O-])C1 [Chlordiazepoxide, chlordiazepoxide]
Adult male CF-1 mice; 10 mg/kg (ip, 30 min)/stress
  cerebellar cGMP, stress: 129%
Adult male CF-1 mice; 30 mg/kg (ip, 30 min)/stress
  cerebellar cGMP, stress: 106* percent
Adult male CF-1 mice; 60 mg/kg (ip, 30 min)/stress
  cerebellar cGMP, stress: 71* percent

## Cc1c(CN2CCN(c3nccnc3-c3ccc(F)cc3)CC2)cnn1-c1ccccc1.Cl [Example 19, 4-(5-methyl-1-phenyl-1H-pyrazol-4-ylmethyl)-3′-(4-fluorophenyl)-3,4,5,6-tetrahydro-2H-[1,2′]bipyrazine hydrochloride]
Male Sprague Dawley rats [1]
  formalin-induced events, early and late phases: active on both the early and late phases

## Cl.Cn1cc(CN2CCN(c3cccnc3-c3ccc(F)cc3)CC2)cn1 [Example 74, 1-[2-(4-Fluoro-phenyl)-pyridin-3-yl]-4-(1-methyl-1H-pyrazol-4-ylmethyl)-piperazine hydrochloride]
5-HT7 receptor; antagonist potency, cAMP, 5-HT7-expressing AV-12 cells
  Kb: ~44 nM
5-HT7 receptor; cAMP formation
  antagonist character at the 5-HT7 receptor: full antagonist
5-HT7 receptor; cAMP formation, 5-HT7-expressing AV-12 cells
  inhibition: about 96%

## Cc1c(CN2CCN(c3nccnc3-c3cccc(F)c3)CC2)cnn1C.Cl [Example 127, 4-(1,5-Dimethyl-1H-pyrazol-4-ylmethyl)-3′-(3-fluoro-phenyl)-3,4,5,6-tetrahydro-2H-[1,2′]bipyrazinyl hydrochloride]
[2]
  ratio of extravasation in the dura, stimulated side over unstimulated side: about 1.16

## Cc1ccc(-c2nccnc2N2CCN(Cc3cn(C)nc3C)CC2)cc1.O=C(O)/C=C/C(=O)O [Example 186, 4-(1,3-Dimethyl-1H-pyrazol-4-ylmethyl)-3′-(4-methylphenyl)-3,4,5,6-tetrahydro-2H-[1,2′]bipyrazine fumarate]
Adult male CF-1 mice; 3 mg/kg (ip, 30 min)/stress
  cerebellar cGMP, stress: 278%
Adult male CF-1 mice; 10 mg/kg (ip, 30 min)/stress
  cerebellar cGMP, stress: 264%
Adult male CF-1 mice; 30 mg/kg (ip, 30 min)/stress
  cerebellar cGMP, stress: 234%
Adult male CF-1 mice; 60 mg/kg (ip, 30 min)/stress
  cerebellar cGMP, stress: 117* percent
Male Sprague Dawley rats [3]
  threshold force required to elicit a response (mechanical allodynia): active

## CC1CCN(CC[C@H]2CCCN2S(=O)(=O)c2cccc(O)c2)CC1 [SB-269970]
Adult male CF-1 mice; 3 mg/kg (ip, 30 min)/stress
  cerebellar cGMP, stress: 270%
Adult male CF-1 mice; 10 mg/kg (ip, 30 min)/stress
  cerebellar cGMP, stress: 225%
Adult male CF-1 mice; 30 mg/kg (ip, 30 min)/stress
  cerebellar cGMP, stress: 171* percent
